# From PubChem BioAssay AID1996
# Settings: buffer; pH 7.4; 200.0 µM
row,Structure (SMILES),solubility kinetic [µg/mL]
1,COCC(C)Nc1ccc(S(=O)(=O)N2CCCC2)cc1[N+](=O)[O-] (stereo not given),44.2
2,COc1ccc(N2CC(NC(=O)N3CCc4ccccc43)CC2=O)cc1OC (stereo not given),> 57.2
3,CCc1nc2ccc(N3CCN(C)CC3)cc2nc1CC,35.2
4,COc1ccc(F)cc1S(=O)(=O)NCCN1CCOCC1,> 47.8
5,CC(=O)c1ccc(N2CCN(C(=O)Cc3cccs3)CC2)cc1,47.3
6,Cc1cc(C)c(C#N)c(SCCN2CCCCC2)n1,> 41.3
7,CCNC(=O)NC(=O)CN(C)c1ccccc1,> 35.3
8,CCc1ccc(Nc2ccc(C(=O)O)cc2[N+](=O)[O-])cc1,> 42.9
9,Cc1ccc(O)c(NC(=O)C2CC(c3cccc(Br)c3)=NO2)c1 (stereo not given),< 0.4
10,COc1nc(N(C)C)nc(N(C)c2cc(Cl)cc(Cl)c2)n1,0.4
11,CC(C)OC(=O)CC1C(=O)NCCN1C(=O)COc1ccc(C(C)(C)C)cc1 (stereo not given),49.4
12,COc1ccc(C2NC(=O)NC(C)=C2[N+](=O)[O-])cc1OC (stereo not given),> 44
13,Nc1ccc2ccc3cccc[n+]3c2c1.[O-][Cl+3]([O-])([O-])[O-],> 44.2
14,Cc1csc(=O)n1CC(=O)Nc1ccc(Cl)cc1F,9
15,Fc1ccc(OCCCn2ccnc2)cc1,23.3
16,COC(=O)Nc1ccc(S(=O)(=O)Nc2ncccn2)cc1,> 46.2
17,CC1CN(C(=O)CCCN2C(=O)c3ccccc3C2=O)CC(C)O1 (stereo not given),> 49.6
18,CCCOc1ccc(C(=O)NCCN2CCOCC2)cc1.Cl,> 49.3
19,O=C(Nc1ccc(F)cc1)N1CCN(C(=O)C2CCCO2)CC1 (stereo not given),> 48.2
20,Cn1c(=O)c2c(ncn2CC(O)CO)n(C)c1=O (stereo not given),> 38.1
21,Cc1[nH]c2ccc(C(=O)NCCN3CCOCC3)cc2c1C,> 45.2
22,O=C(Nc1cccc(F)c1)c1c(O)c2cccc3c2n(c1=O)CCC3,< 0.4
23,NS(=O)(=O)c1cc(C(=O)N2CCNC(=O)C2)ccc1Cl,> 47.7
24,COc1ccc(-n2cnc3sccc3c2=O)cc1,35.8
25,CC(C)(CN=C1NS(=O)(=O)c2ccccc21)CNC(=O)c1ccccc1,> 55.7
26,Cc1cc(C)cc(NC(=O)C2CCN(S(C)(=O)=O)CC2)c1,38.8

row,Structure (SMILES),solubility kinetic [µg/mL]
1,Cc1ccc(CNC(=O)Nc2ccccc2)c(C)c1,0.7
2,CC(NC(=O)c1ccc(N(C)C)cc1)c1ccc(F)cc1 (stereo not given),6.5
3,Cc1ccc(C(=O)NC(=S)N(C)C2CCCCC2)cc1,9.9
4,O=C(NCc1ccco1)c1ccc(Cl)nc1,> 35.5
5,COc1cc(C(=O)c2ccccc2)c([N+](=O)[O-])cc1OC,> 43.1
6,COc1ccc(OC)c(C(O)c2nc3ccccc3n2C)c1 (stereo not given),> 44.8
7,O=C(CCC(=O)N1CCN(c2ccccc2F)CC1)c1ccc(Cl)s1,19.5
8,CCCC1C(=O)N(Cc2ccccc2)C(=O)CC1C (stereo not given),31.1
9,O=C(NC1CCCCCC1)c1ccc[nH]c1=S,> 37.6
10,O=S(=O)(Nc1ccc2c(c1)OCO2)c1ccc(F)c(F)c1,> 47
11,O=C(NC1CCCCCC1)C(=O)NC1CC1,19.8
12,CN1C(=O)C(C)(C)N(C(=O)c2cccc([N+](=O)[O-])c2)c2ccccc21,29.5
13,O=C(Nc1ccc(NC(=O)c2cccs2)cc1Cl)c1ccco1,1.1
14,COn1c(=O)c(-c2ccc(F)cc2)[n+]([O-])c2ccccc21,> 42.9
15,CC(=O)c1cccc(NC(=O)C(C)OC(=O)C2=NNC(=O)CC2)c1 (stereo not given),> 49.7
16,O=C(NC(=S)Nc1cccnc1Cl)c1ccc(F)cc1,6.4
17,CC1(C)NC(=O)N(CCC(=O)Nc2cc(C(F)(F)F)ccc2Cl)C1=O,> 56.7
18,CCN(CC)CC#CC(OC)(c1ccccc1)c1ccccc1.Cl,29.5
19,Cc1c[nH]c2ccccc12,6.8
20,COc1ccccc1N1CCN(C(=O)c2cc3cc(C)ccc3[nH]2)CC1,< 0.2
21,CCOc1ccccc1Nc1ccc(C(=O)O)cc1[N+](=O)[O-],40.8
22,Cc1cccc(NC(=O)Nc2ccc(Cl)cc2)n1,< 0.2
23,OC(CCNCCc1c[nH]c2ccccc12)C(F)(F)F (stereo not given),35.8
24,Cc1cc(C)cc(NC(=O)C2CCN(c3cnccn3)CC2)c1,13.7
25,COc1ccc(S(=O)(=O)N2CCCCCC2)cc1C(=O)OCC(=O)NC1CCS(=O)(=O)C1 (stereo not given),> 73.3
26,CC1(CO)COC2(OC1)C(=O)Nc1ccccc12 (stereo not given),> 37.4

# The remaining lines, values ahead:
row,solubility kinetic [µg/mL],Structure (SMILES)
1,41.3,CCN(Cc1cc(=O)[nH]c2ccccc12)C(=O)c1ccc(C)cc1
2,30.9,Cc1cc(Nc2ccccc2)cc(=O)n1C
3,< 0.7,CCOC(=O)C1=C(N)Oc2cc(O)ccc2C1c1cccc(Cl)c1 (stereo not given)
4,38.4,CSc1ncccc1C(=O)NCC1CCCCC1
5,5.6,Cc1ccc(C(=O)Nc2ccc(N3CCOCC3)nc2N2CCOCC2)cc1
6,34.7,CC(C[N+](C)(C)C)OC(=O)C1(c2ccccc2)CCCC1 (stereo not given)
7,27.4,CC(C)NC(=S)N(CCc1ccncc1)C(C)C
8,> 44.9,COc1cccc(NC(=O)CN(C)C(=O)c2ccccn2)c1
9,8.7,O=C(COC(=O)/C=C/c1ccc(Cl)cc1)Nc1cccc(S(=O)(=O)NC2=NCCCCC2)c1
10,> 47.4,O=C(O)c1sccc1NC(=O)c1c(Cl)cccc1Cl
11,> 54.5,CCN(CC(=O)NCc1ccccn1)S(=O)(=O)c1ccc(OC)cc1
12,39.8,Cc1cc(=O)cc(C)n1-c1ccccc1Br
13,39.9,O=C(CSc1cccc[n+]1[O-])c1ccc(Cl)cc1
14,< 0.6,CCCCCNC(=O)C1c2ccccc2Oc2ccccc21
15,< 0.2,Cc1ccccc1-c1nc(C#N)c(N2CCC(C)CC2)o1
16,4.5,Clc1ccc2c(NCc3cccs3)ncnc2c1
17,> 36.5,CC(NC(=O)c1ccccc1F)c1ccccc1 (stereo not given)
18,> 45.8,O=C(O)C1C2CCC(C2)C1C(=O)NCCc1ccc(F)cc1 (stereo not given)
19,> 37.1,O=C(O)c1c(-n2cccc2)sc2c1CCCC2
20,10.4,CCOC(=O)Cc1csc(NC(=O)c2cc3ccccc3o2)n1
21,18.7,CCOC(=O)/C(C)=C1\NC(C)(C)Cc2ccccc21.I
22,31.6,Cc1ccccc1Nc1ncc(C#N)c(N)n1
23,15.2,COc1ccc(C(=O)NC2CCCCCCC2)cc1OC

row,solubility kinetic [µg/mL],Structure (SMILES)
1,> 35.3,Cc1cc(C(=O)NCc2ccco2)sc1C
2,9.2,O=C(Cn1cnc2ccccc2c1=O)c1ccc(OC(F)F)cc1
3,39.7,C=CCn1cccc(C(=O)Nc2ccc(C)cc2)c1=O
4,4.4,COc1ccc(S(=O)(=O)NCc2c(-c3ccccc3)noc2C)c(OC)c1
5,> 47.4,COC(OC)C1Nc2ccccc2C(=O)N1c1ccc(F)cc1 (stereo not given)
6,18.6,C#CC(CC)(CC)NC(=O)c1ccc(Br)s1
7,5.2,CCOc1ccccc1CN1C(=O)C2(OCCO2)c2ccccc21
8,< 0.7,Cn1cc(C=C2C(=O)OC3(CCCCC3)OC2=O)c2ccccc21
9,> 53,CC12CCC(C(=O)Nc3ccc(Br)cn3)(OC1=O)C2(C)C (stereo not given)
10,< 0.2,COc1ccc(Nc2nc(C)cc(C)c2C#N)c(OC)c1
11,7.9,CCC(Oc1ccccc1)C(=O)Nc1ccccc1N1CCCC1 (stereo not given)
12,44.2,O=C(NCCCNC(=O)c1ccco1)c1ccc(Cl)c(Cl)c1
13,5.1,Cc1ccccc1Sc1ncccc1[N+](=O)[O-]
14,30.6,O=Cc1cccn1-c1ncc(Br)cn1
15,43.8,Cc1ccc(SCC(=O)N2CCN(c3ccccn3)CC2)cc1
16,> 36.5,COC(=O)c1c(C)[nH]c(C=O)c1-c1ccccc1
17,44.2,O=C(/C=C/c1ccc(Br)cc1)NCCCn1ccnc1
18,6.3,COc1cc(C(=O)NCC(c2cccs2)N2CCOCC2)cc(Br)c1OCc1ccccc1 (stereo not given)
19,> 47.5,CC(C)(C)c1ccc(C(=O)NCC(=O)N2CCCCCC2)cc1
20,13.1,NC(=O)C1CCCN(S(=O)(=O)c2ccc3ccccc3c2)C1 (stereo not given)
21,> 48.7,CCOC(=O)CC1C(=O)NCCN1C(=O)c1ccc(Cl)cc1 (stereo not given)
22,> 53.4,CCOC(=O)C1CCCN1C(=O)c1ccc(OC)c(Br)c1 (stereo not given)
23,> 39.9,COc1ccc(C)cc1S(=O)(=O)n1cnc(C)c1

row,solubility kinetic [µg/mL],Structure (SMILES)
1,> 50.9,CC(=O)N1CCN(CC(C)(C)NS(=O)(=O)c2ccccc2)CC1
2,6.4,COc1cccc(NC(=O)N2CCCC(C(=O)NC3CCCCC3C)C2)c1 (stereo not given)
3,50.6,O=C(O)CC1(CC(=O)Nc2ccc3c(c2)OCCCO3)CCCCC1
4,39.7,Cc1ccc(NC(=O)c2ccc(F)cc2F)cc1NS(C)(=O)=O
5,40.4,S=C(Nc1cccc(Cl)c1)Nc1ccc2c(c1)OCCO2
6,> 54.6,COC(=O)CCN(C(=O)c1ccc(Cl)c([N+](=O)[O-])c1)c1ccccn1
7,3.6,O=C(CN1C(=O)S/C(=C\c2cc(Cl)c(O)c(Cl)c2)C1=O)Nc1ccccc1
8,4.1,COc1ccc(CNC(=O)c2ccc(Br)cc2)cc1
9,1.5,O=C(NCc1ccc(Cl)c(Cl)c1)c1ccc2c(c1)OCO2
10,> 47.3,O=C(CNC(=O)[C@@H]1Cc2ccccc2CN1)NC1CCCCC1
11,> 44.5,Cc1ccc(NS(=O)(=O)c2ccc(Cl)nc2)c(C)c1
12,> 58.6,C#CCOc1ccc(/C=C2/C(=O)N(c3cccc(C(=O)O)c3)N=C2C)cc1OC
13,1.3,Cc1ccc(C(=O)Nc2cccc(-c3nc4ncccc4o3)c2)cc1
14,> 46,CCC(Oc1ccccc1)C(=O)NCCCN1CCOCC1 (stereo not given)
15,< 0.3,COc1ccc(-c2cc(-c3ccccc3)nc(Cl)n2)cc1OC
16,> 51.8,Cc1ccsc1/C=N/NC(=O)C1CC(=O)N(c2ccc(F)cc2)C1 (stereo not given)
17,42.3,O=S(=O)(Nc1ccncc1Cl)c1ccc2ccccc2c1
18,> 27.4,Cl.O=c1cn[nH]c2ccccc12
19,32.5,CC(CC(=O)Nc1nccs1)c1ccccc1 (stereo not given)
20,> 44.3,CC(NC(=O)c1ccccc1)C(=O)N/N=C/c1ccccc1 (stereo not given)
21,> 57.3,CC(C)CC1(C)NC(=O)N(CC(=O)Nc2ccccc2Br)C1=O (stereo not given)
22,0.6,CCOc1ccccc1NC(=O)Nc1cc(S(=O)(=O)N(C)C)ccc1C
